Source: patent US20220409649A1, “a-GLUCOSIDASE INHIBITOR, INVERTASE INHIBITOR, AND SUGAR ABSORPTION INHIBITOR” (Kinki University, priority 2019, published 2022)

Experiments:
invertase = invertase (Saccharomyces cerevisiae, UniProt P00724); assay: Invertase inhibition analysis by compound (I); type: biochemical
Procedure: For invertase inhibition analysis, 100 μg of sucrose as a substrate and 1 μg, 10 μg, or 100 μg of the compound (I) being the invertase inhibitor were added to 50 μL of 100 mmol/L acetate buffer solution, and pre-incubation was performed at 37° C. for five minutes. Thereafter, 50 μL of 0.2 U/mL invertase solution was added, and incubation was performed for 15 minutes. Thereafter, 10 μL of the reaction mixture was heated in a water bath to inactivate the enzyme and evaporated and dried, and the PMP derivatization was performed. A substance subjected to the enzyme reaction under the same conditions without adding the inhibitor was used as a blank. In each sample, the concentration required for the compound (I) to inhibit 50% of the enzyme was defined as IC50. An inhibition rate by the compound (I) was calculated using a following equation.
Inhibition rate (%)=[D1−(D2−D3)/1]×100 (Equation 1)
D1: Peak area of glucose in blank sample
D2: Peak area of glucose in each sample after enzyme reaction
D3: Peak area of glucose contained in inhibitor as an impurity
The IC50 value was calculated from a dose-response curve of the compound (I) used as the inhibitor.

[1] = test system: Maltase α-(1-4)glucosidase; assay: Maltase inhibition analysis by compound (I) (Table 2); type: biochemical
[2] = molecular target: T1, sucrase (sucrose as substrate) (Rattus norvegicus, UniProt P23739); assay: Screening of enzyme inhibition, rat intestinal acetone powder crude enzyme, sucrose as substrate; type: biochemical; conditions: 10 μL inhibitor solution (3.4 mg/mL diluted 100 times), five hours
T1 construct: the supernatant was used as a purified enzyme; from tissue; host or cells: rat intestine (acetone powder, supernatant of homogenate)
T1 sequence (P23739 1-1013 limits assumed): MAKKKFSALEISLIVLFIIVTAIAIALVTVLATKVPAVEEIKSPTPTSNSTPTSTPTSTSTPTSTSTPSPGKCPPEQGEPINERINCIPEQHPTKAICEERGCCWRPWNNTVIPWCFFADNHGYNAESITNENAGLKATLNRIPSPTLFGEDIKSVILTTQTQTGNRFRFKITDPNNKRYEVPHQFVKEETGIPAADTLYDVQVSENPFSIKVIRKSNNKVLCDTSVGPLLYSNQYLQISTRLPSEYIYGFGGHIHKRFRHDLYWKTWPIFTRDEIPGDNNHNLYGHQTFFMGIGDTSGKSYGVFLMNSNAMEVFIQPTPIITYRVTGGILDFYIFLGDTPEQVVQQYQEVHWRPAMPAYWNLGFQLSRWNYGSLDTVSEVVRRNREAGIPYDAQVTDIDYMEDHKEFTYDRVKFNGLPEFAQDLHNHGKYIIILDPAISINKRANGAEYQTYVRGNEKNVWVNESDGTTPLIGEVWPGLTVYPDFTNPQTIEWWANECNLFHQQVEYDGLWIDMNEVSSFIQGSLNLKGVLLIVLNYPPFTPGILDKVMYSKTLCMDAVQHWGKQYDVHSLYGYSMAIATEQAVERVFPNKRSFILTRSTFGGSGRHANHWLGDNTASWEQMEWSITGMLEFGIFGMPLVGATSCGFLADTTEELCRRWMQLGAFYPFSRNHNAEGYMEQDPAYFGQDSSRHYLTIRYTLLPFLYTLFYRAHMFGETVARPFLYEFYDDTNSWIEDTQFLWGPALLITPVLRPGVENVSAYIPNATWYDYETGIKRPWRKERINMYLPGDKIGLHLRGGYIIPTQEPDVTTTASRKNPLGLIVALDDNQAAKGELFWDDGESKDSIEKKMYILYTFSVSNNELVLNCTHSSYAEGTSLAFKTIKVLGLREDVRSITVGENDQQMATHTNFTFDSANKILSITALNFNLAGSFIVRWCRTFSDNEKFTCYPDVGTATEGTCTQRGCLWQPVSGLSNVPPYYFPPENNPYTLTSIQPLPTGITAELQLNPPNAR
T1 sequence (P23739 1014-1841 limits assumed): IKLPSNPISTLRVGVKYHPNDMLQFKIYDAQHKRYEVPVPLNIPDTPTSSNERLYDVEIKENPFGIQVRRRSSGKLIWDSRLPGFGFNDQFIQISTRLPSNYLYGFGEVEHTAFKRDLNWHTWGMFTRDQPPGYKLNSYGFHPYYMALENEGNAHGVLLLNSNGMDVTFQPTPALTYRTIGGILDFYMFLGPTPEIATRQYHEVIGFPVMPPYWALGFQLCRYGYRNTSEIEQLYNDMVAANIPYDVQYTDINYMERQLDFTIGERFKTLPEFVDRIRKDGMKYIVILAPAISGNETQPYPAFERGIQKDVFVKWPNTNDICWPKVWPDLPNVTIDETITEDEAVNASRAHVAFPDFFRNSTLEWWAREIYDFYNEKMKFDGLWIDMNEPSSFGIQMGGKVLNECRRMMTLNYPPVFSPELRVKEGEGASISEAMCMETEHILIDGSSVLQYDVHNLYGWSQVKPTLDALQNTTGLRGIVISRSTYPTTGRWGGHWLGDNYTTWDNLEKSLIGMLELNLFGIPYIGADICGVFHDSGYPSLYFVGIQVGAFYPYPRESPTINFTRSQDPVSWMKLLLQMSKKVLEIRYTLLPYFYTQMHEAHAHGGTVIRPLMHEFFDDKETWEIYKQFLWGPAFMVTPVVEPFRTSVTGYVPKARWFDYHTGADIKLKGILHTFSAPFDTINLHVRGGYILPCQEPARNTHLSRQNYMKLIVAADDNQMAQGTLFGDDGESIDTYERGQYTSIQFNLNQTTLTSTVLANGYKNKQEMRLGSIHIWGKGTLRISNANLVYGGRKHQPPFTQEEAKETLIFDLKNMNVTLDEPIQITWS
Procedure: (§1) As a crude enzyme mixture, 50 mg of rat intestinal acetone powder was added to 450 μL of 50 mmol/L phosphate buffer solution (pH 6.0), the mixture was stirred for 30 seconds, and then homogenized. Thereafter, the mixture was centrifuged (10000 rpm, 4° C., 20 minutes), and the supernatant was used as a purified enzyme (50 mg/450 μL). Sucrose and two types of glucose disaccharides (maltose and isomaltose) having different bonds were used as substrates. 3.4 mg of each of the two types of substrates was dissolved in 100 μL of phosphate buffer solution, and each solution was used as a substrate solution. A solution obtained by dissolving 3.4 mg of the compound (I) as a competitive inhibitor in 1 mL of phosphate buffer solution and diluting 100 times, was used as an inhibitor solution. 100 μL of the substrate solution and 10 μL of the inhibitor solution were mixed, and pre-incubation was performed for five minutes. Then, 90 μL of an enzyme solution was added to start incubation. Five hours later, 10 μL of the reaction solution was heated in a water bath for 10 minutes to stop the reaction, followed by the PMP derivatization, and then the capillary electrophoresis. An enzyme reaction solution under the same conditions without the inhibitor was used as a blank. The inhibition rate was calculated for each substrate using the same equation as that in the invertase inhibition analysis.

[3] = test system: maltase (maltose as substrate); assay: Screening of enzyme inhibition, rat intestinal acetone powder crude enzyme, maltose as substrate; type: biochemical; conditions: 10 μL inhibitor solution (3.4 mg/mL diluted 100 times), five hours
Procedure: as §1

[4] = molecular target: T2, isomaltase (isomaltose as substrate) (Rattus norvegicus, UniProt P23739); assay: Screening of enzyme inhibition, rat intestinal acetone powder crude enzyme, isomaltose as substrate; type: biochemical; conditions: 10 μL inhibitor solution (3.4 mg/mL diluted 100 times), five hours
T2 construct: the supernatant was used as a purified enzyme; from tissue; host or cells: rat intestine (acetone powder, supernatant of homogenate)
T2 sequence (P23739 1-1013 limits assumed): as the sequence (P23739 1-1013 limits assumed) above
T2 sequence (P23739 1014-1841 limits assumed): as the sequence (P23739 1014-1841 limits assumed) above
Procedure: as §1

[5] = Oral glucose tolerance testing using sucrose, normal rats; type: in vivo, normal Wistar type rats; conditions: oral co-administration with sucrose 1.5 g/kg, FIG. 7
Procedure: (§2) Glucose tolerance testing of normal Wistar type rats and OLETF rats with diabetes was performed using the compound (I). After fasted for 14 hours, glucose was loaded, and blood taken from tail veins of the rats was subjected to various tests.
(§3) An aqueous solution containing […] of sucrose (hereinafter, also referred to as “A Liquid”) and an aqueous solution containing […] of sucrose and 0.085 mg/ml of the compound (I) (hereinafter, also referred to as “B Liquid”) were prepared. Six normal 7-week-old rats (male) were divided into two groups. In one group, the A liquid was orally administered such that an amount of sucrose was 1.5 g/kg based on the rat body weight. In the other group, the B liquid was orally administered such that the amount of sucrose was 1.5 g/kg based on the rat body weight. Blood was taken from the tail veins of the rats before the administration and in 30 minutes, 60 minutes, 90 minutes, and 120 minutes after the administration, and then plasma was obtained by centrifugation. For the obtained plasma, glucose and insulin were quantified.

[6] = Oral glucose tolerance testing using sucrose, OLETF rats with diabetes; type: in vivo; conditions: oral co-administration with sucrose, FIG. 8
Procedure: as §2, §3

Sequence of invertase (P00724 20-532): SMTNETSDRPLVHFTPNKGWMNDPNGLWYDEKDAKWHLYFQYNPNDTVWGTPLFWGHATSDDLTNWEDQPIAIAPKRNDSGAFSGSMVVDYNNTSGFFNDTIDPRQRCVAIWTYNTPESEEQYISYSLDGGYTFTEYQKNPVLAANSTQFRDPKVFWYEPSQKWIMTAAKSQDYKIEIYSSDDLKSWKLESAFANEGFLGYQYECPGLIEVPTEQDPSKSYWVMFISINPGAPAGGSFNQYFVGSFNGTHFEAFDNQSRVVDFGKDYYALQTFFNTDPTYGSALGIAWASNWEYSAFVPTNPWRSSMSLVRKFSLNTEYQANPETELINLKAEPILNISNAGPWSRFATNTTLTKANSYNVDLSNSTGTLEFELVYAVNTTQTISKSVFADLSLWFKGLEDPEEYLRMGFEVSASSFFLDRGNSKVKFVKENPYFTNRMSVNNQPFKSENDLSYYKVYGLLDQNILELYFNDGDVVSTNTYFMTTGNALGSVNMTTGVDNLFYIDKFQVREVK

**Q.** Which “Peak response (Glc)” value (invertase; 1 μg inhibitor) does the source give for `OCC1OC(CO)(OCC2OC(O)C(O)C(O)C2O)C(O)C1O` (centres unmarked) [compound (I), Maplebiose] here?
**A.** The value was 18.2.

**Q.** And the “Peak response (Glc)” value (invertase; 10 μg inhibitor)?
**A.** The value was 17.2.

**Q.** What about the “Peak response (Glc)” value (invertase; 100 μg inhibitor) of the same compound?
**A.** The value was 23.1.

**Q.** And the “Inhibition (%)” value ([1]; 1 μg inhibitor)?
**A.** The value was 39.1%.

**Q.** What about the “Inhibition (%)” value ([1]; 10 μg inhibitor) of the same compound?
**A.** The value was 49.4%.

**Q.** And the “Inhibition (%)” value ([1]; 100 μg inhibitor)?
**A.** Its value is 54.2%.

**Q.** And the IC50 ([1]; calculated using a straight line from concentrations and inhibition rates)?
**A.** Its IC50 is 1720 µM.

**Q.** And the Inhibition rate [2]?
**A.** Its Inhibition rate is 12.3%.

**Q.** What about the Inhibition rate [3] of the same compound?
**A.** The Inhibition rate was 9.4%.

**Q.** And the Inhibition rate [4]?
**A.** The Inhibition rate was 3.3%.

**Q.** What about the “changes with time of insulin” value [5] of the same compound?
**A.** Its value is “similar”.

**Q.** What about the “plasma glucose value vs rats not administered with the compound (I)” value [5] of the same compound?
**A.** Its value is “significantly lower”.

**Q.** What about the “changes with time of insulin” value [6] of the same compound?
**A.** Its value is “similar”.

**Q.** What about the “plasma glucose value relative to rats not administered with the compound (I)” value [6] of the same compound?
**A.** Its value is “about 50%”.
